Each compound was assayed against Purified human HSD1 (Homo sapiens, UniProt P28845) (assay: In vitro inhibition of 11β-HSD1, enzyme assay (time-resolved fluorescence)). Settings: purified human HSD1, cortisone substrate, 37° C. for 30 min.
Sequence of Purified human HSD1 (P28845 whole entry): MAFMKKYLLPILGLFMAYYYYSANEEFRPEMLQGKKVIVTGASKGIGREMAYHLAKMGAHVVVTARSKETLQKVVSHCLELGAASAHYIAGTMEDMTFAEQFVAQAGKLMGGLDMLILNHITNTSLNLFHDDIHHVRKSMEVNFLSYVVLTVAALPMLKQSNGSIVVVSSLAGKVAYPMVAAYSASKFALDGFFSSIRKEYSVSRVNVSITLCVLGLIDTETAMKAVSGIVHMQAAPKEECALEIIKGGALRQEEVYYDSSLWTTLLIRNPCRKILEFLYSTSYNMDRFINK
Assay type: biochemical
Description: Purified human HSD1 was diluted in 50 mM Tris-HCl, 100 mM NaCl, 0.1 mg/mL BSA, 0.02% Lubrol, 20 mM MgCl2, 10 mM glucose 6-phosphate, 0.4 mM NADPH, 60 U/mL glucose 6-phosphate dehydrogenase to a concentration of 1.5 μg/mL (Enzyme Solution). Cortisone (100 μM) in DMSO was diluted to 1 μM with 50 mM Tris-HCl, 100 mM NaCl (Substrate Solution). Test compounds (40 μM) in DMSO were diluted 3 fold in series in DMSO and further diluted 20 fold in Substrate Solution. Enzyme Solution (10 μL/well) was added into 384 well microtiter plates followed by diluted compound solutions (10 μL/well) and mixed well. Samples were then incubated at 37° C. for 30 min. EDTA/biotin-cortisol solution (10 μL/well) in 28 mM EDTA, 100 nM biotin-cortisol, 50 mM Tris-HCl, 100 mM NaCl was then added followed by 5 μL/well of anti-cortisol antibody (3.2 μg/mL) in 50 mM Tris-HCl, 100 mM NaCl, 0.1 mg/mL BSA and the solution was incubated at 37° C. for 30 min. Five μL per well of Eu-conjugated anti-mouse IgG (16 nM) and APC-conjugated streptavidin (160 nM) in 50 mM Tris-HCl, 100 mM NaCl, 0.1 mg/mL BSA was added and the solution was incubated at room temperature for 2 hours. Signals were quantitated by reading time-resolved fluorescence on a Victor 5 reader (Wallace).
Percent inhibition of HSD1 activity by an agent at various concentrations was calculated by the following formula: % Inhibition=100*[1−(Fs−Fb)/(Ft−Fb)], wherein: • Fs is the fluorescence signal of the sample which included the agent, • Fb is the fluorescence signal in the absence of HSD1 and agent, • Ft is the fluorescence signal in the presence of HSD1, but no agent.
The inhibitory activities of test compounds were determined by the IC50s, or the concentration of compound that gave 50% inhibition.
Work on `O=C(c1csc(-c2ccccc2Cl)n1)N1CCCCCCC1` [Example 10, Azocan-1-yl-[2-(2-chloro-phenyl)-thiazol-4-yl]-methanone] yielded an IC50 of 0.05 µM.
With `COc1ccc(-c2nc(C(=O)N3CCCC4CCCCC43)cs2)cc1` (stereo not drawn) [Example 17, [2-(4-Methoxy-phenyl)-thiazol-4-yl]-(octahydro-quinolin-1-yl)-methanone] the IC50 was 0.373 µM.
Compound `Cc1ccc(-c2nc(C(=O)N3CC(C)CC(C)C3)cs2)cc1` (stereo not drawn) [Example 33, (3,5-Dimethyl-piperidin-1-yl)-(2-p-tolyl-thiazol-4-yl)-methanone] has an IC50 of 0.365 µM.
For `CCOc1cc(Cl)ccc1-c1nc(C(=O)N2CCCC3CCCCC32)cs1` (stereo not drawn) [Example 46, [2-(4-Chloro-2-ethoxy-phenyl)-thiazol-4-yl]-(octahydro-quinolin-1-yl)-methanone], the IC50 was 0.102 µM.
In the case of `O=C(c1csc(-c2cccc(OCc3ccccc3)c2)n1)N1CCCC2CCCCC21` (stereo not drawn) [Example 61, [2-(3-Benzyloxy-phenyl)-thiazol-4-yl]-(octahydro-quinolin-1-yl)-methanone], the IC50 is reported as 0.457 µM.
With `O=C(c1csc(-c2cccc(Cl)c2Cl)n1)N1CCCC[C@H]1c1ccccn1` [Example 96, [2-(2,3-Dichloro-phenyl)-thiazol-4-yl]-(S)-3,4,5,6-tetrahydro-2H-[2,2′]bipyridinyl-1-yl-methanone] the IC50 was 0.04 µM.
`C[C@@H]1CCC[C@H](C)N1C(=O)c1csc(-c2ccccc2Cl)n1` [Example 115, [2-(2-Chloro-phenyl)-thiazol-4-yl]-((2S,6R)-2,6-dimethyl-piperidin-1-yl)-methanone] gave an IC50 of 0.34 µM.
`COc1cccc(Cl)c1-c1nc(C(=O)N2CCCC3CCCCC32)cs1` (stereo not drawn) [Example 117, [2-(2-Chloro-6-methoxy-phenyl)-thiazol-4-yl]-(octahydro-quinolin-1-yl)-methanone] gave an IC50 of 1.5 µM.
With `COc1ccccc1-c1nc(C(=O)N2CCCCC2C)cs1` (stereo not drawn) [Example 119, [2-(2-Methoxy-phenyl)-thiazol-4-yl]-(2-methyl-piperidin-1-yl)-methanone] the IC50 was 0.73 µM.
`O=C(N[C@H]1CC[C@H](O)CC1)c1csc(-c2ccccc2Cl)n1` [Example 124, 2-(2-Chloro-phenyl)-thiazole-4-carboxylic acid (4-hydroxy-cyclohexyl)-amide] showed an IC50 of 1.9 µM.
`CC(=O)c1ccccc1-c1nc(C(=O)NC2CCCCCC2)cs1` [Example 144, 2-(2-Acetyl-phenyl)-thiazole-4-carboxylic acid cycloheptyl amide] was tested, and the IC50 was 0.032 µM.
For `O=C(c1csc(-c2ccc(-c3ccccc3)cc2)n1)N1CCCC2CCCCC21` (stereo not drawn) [Example 180, (2-Biphenyl-4-yl-thiazol-4-yl)-(octahydro-quinolin-1-yl)-methanone], the IC50 was 0.93 µM.
